Laboratory results reported in ChEMBL document CHEMBL1130294, “Subsite requirements for peptide aldehyde inhibitors of human calpain I” (Bioorg Med Chem Lett, 1997).
Non-standard residues stand in square brackets, D forms with d. Residues, ends and D or L forms follow the SMILES beside them. *: point of attachment. tBuAla = CC(C)(C)C[C@H](N)C(=O)O; Tle = CC(C)(C)[C@H](N)C(=O)O; Cbz = O=C(OCc1ccccc1)*

What follows are molecules tested against T1, Calpain-1 catalytic subunit (Homo sapiens, UniProt P07384) (assay: Inhibitory activity evaluated against recombinant human calpain 1).
T1 sequence (P07384 whole entry): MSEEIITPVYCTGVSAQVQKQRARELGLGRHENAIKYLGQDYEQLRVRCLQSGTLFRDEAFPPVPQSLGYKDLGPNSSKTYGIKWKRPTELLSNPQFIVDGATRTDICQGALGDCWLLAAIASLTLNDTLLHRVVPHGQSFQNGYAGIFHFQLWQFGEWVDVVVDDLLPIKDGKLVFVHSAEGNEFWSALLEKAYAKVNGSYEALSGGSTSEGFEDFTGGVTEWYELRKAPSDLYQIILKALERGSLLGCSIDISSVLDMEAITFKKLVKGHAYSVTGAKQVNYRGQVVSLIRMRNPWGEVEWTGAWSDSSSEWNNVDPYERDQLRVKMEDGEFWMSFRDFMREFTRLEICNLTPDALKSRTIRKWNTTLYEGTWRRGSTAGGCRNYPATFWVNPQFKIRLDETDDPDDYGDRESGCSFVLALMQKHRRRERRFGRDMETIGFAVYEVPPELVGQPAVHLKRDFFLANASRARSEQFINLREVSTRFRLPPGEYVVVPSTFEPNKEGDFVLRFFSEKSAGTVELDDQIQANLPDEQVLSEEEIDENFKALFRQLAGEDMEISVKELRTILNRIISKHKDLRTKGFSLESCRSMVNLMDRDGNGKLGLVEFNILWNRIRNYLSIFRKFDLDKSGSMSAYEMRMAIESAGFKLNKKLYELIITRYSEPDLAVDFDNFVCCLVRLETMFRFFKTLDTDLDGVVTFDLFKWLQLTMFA

In order of falling IC50:
1. CC(C)C[C@@H](C=O)NC(=O)[C@H](CC(C)(C)C)NC(=O)OCc1ccccc1 (Cbz-[tBuAla]-Leu-aldehyde)  140 nM
2. CSCCC(C=O)NC(=O)C(CC(C)C)NC(=O)[C@H](CC(C)C)NC(C)=O (single isomer, unassigned)  23 nM
3. CCCC[C@@H](C=O)NC(=O)[C@H](CC(C)C)NC(=O)OCc1ccccc1 [CALPEPTIN]  5 nM
4. CC(C)C[C@@H](C=O)NC(=O)[C@@H](NC(=O)OCc1ccccc1)C(C)(C)C (Cbz-[Tle]-Leu-aldehyde)  4 nM
